Measured values as given in patent US20220125837A1, “METHODS FOR CONTROLLED ELIMINATION OF THERAPEUTIC CELLS” (Bellicum Pharmaceuticals, Inc., priority 2014, published 2022).

How the values were obtained:
iFas-transduced CTLs = experiment: CID-induced elimination of GFP+ iFas-transduced EBV-CTLs; assay type: cell-based, human; details: GFPhigh, 1:1 with nontransduced, 10 nM CID, day 7
From the text: Caspase-9 was selected as an inducible proapoptotic molecule for clinical use rather than previously presented iFas and iFADD, because Caspase-9 acts relatively late in apoptosis signaling and therefore is expected to be less susceptible to inhibition by apoptosis inhibitors. Thus, suicide function should be preserved not only in malignant, transformed T-cell lines that express antiapoptotic molecules, but also in subpopulations of normal T cells that express elevated antiapoptotic molecules as part of the process to ensure long-term preservation of memory cells. To further investigate the hypothesis, the function of iCasp9M and iFas was first compared in EBV-CTLs. To eliminate any potential vector based difference, inducible Fas also was expressed in the MSCV.IRES.GFP vector, like iCasp9. […]
Elimination of GFP^+ cells after administration of 10 nM CID was more rapid and more efficient in iCasp9M than in iFas-transduced CTLs (99.2%+/−0.14% of iCasp9M-transduced cells compared with 89.3%+/−4.9% of iFas-transduced cells at day 7 after CID; P<0.05). On the day of LCL stimulation, 10 nM CID was administered, and GFP was measured at the time points indicated to determine the response to CID. […]

Jurkat cells = experiment: CID-induced apoptosis (annexin V) in transduced Jurkat cells; assay type: cell-based, human; details: 10 nM CID for 8 hours
[1] = test system: iCasp9M.IRES.GFPhigh-transduced CTLs; experiment: SCID mouse-human xenograft: elimination of iCasp9M CTLs by CID; assay type: in vivo, NOD/SCID mice; details: single dose of CID (50 μg AP20187 intraperitoneally), three days after
Experimental: Non-obese diabetic severe combined immunodeficient (NOD/SCID) mice, 6 to 8 weeks of age, were irradiated (250 rad) and injected subcutaneously in the right flank with 10×10^6 to 15×10^6 LCLs resuspended in Matrigel (BD Bioscience). Two weeks later mice bearing tumors that were approximately 0.5 cm in diameter were injected into the tail vein with a 1:1 mixture of nontransduced and iCasp9.I.GFPhigh-transduced EBV CTLs (total 15×10^6). At 4 to 6 hours prior and 3 days after CTL infusion, mice were injected intraperitoneally with recombinant hIL-2 (2000 U; Proleukin; Chiron). […] By FACS analysis, the number of GFP+ cells within the gated CD3^+ population was evaluated. […]
The function of iCasp9M also was evaluated in transduced EBV-CTLs in vivo. […] Three days after CID/carrier administration, tumors were analyzed for human CD3^+/GFP^+ cells. […]
The function of iCasp9M in vivo, was assayed. […] On day 3 after CTL administration, mice received either CID (50 μg AP20187; (black diamonds, n=6) or carrier only (black squares, n=5) and on day 6 the presence of human CD3+/GFP+ T cells in the tumors was analyzed. Human CD3+ T cells isolated from the tumors of a control group of mice that received only nontransduced CTLs (15×10^6 CTLs; n=4) were used as a negative control for the analysis of CD3+/GFP+ T cells within the tumors.

CC[C@H](C(=O)N1CCCC[C@H]1C(=O)O[C@H](CCc1ccc(OC)c(OC)c1)c1cccc(OCC(=O)NCC(CNC(=O)COc2cccc([C@@H](CCc3ccc(OC)c(OC)c3)OC(=O)[C@@H]3CCCCN3C(=O)[C@@H](CC)c3cc(OC)c(OC)c(OC)c3)c2)CN(C)C)c1)c1cc(OC)c(OC)c(OC)c1 [AP20187]
Elimination of GFP+ cells (iFas-transduced CTLs): 89.3%+/−4.9% | apoptosis (annexin-V staining) (Jurkat cells; iCasp9M-transduced Jurkat): 57.2%+/−18.9% | apoptosis (annexin-V staining) (Jurkat cells; iFas-transduced Jurkat): 56.4%+/−15.6% | reduction in the number of human CD3+/GFP+ T cells in tumors vs carrier ([1]; listed as CID): > 99% | reduction in the number of human CD3+/GFP+ T cells in tumors vs carrier ([1]; listed as dimerizer): more than 99%
